Data taken from paper PMC5882164, “A novel calcimimetic agent, evocalcet (MT-4580/KHK7580), suppresses the parathyroid cell function with little effect on the gastrointestinal tract or CYP isozymes in vivo and in vitro” (PLoS ONE, 2018).
“And” between values parts separate entries of the source, which are not always exact repeats. Equal entries are not always repeated. Structures can show the parent of a compound that is named as a salt.

Tests used:
[1] = system: serum PTH; assay: Normal rat study: serum PTH level after oral administration; assay type: in vivo; settings: normal rats
Protocol: (§1) After acclimatization, rats were divided into nine groups (n = 10/group) matched in terms of body weight, and their serum PTH and calcium levels. Vehicle, 0.5% (w/v) methyl cellulose (Wako Pure Chemical Industries, Ltd.) solution orally administered to vehicle treatment group rats. Evocalcet (0.03, 0.1, 0.3, or 1 mg/kg), or cinacalcet (1, 3, 10, or 30 mg/kg) were suspended in the vehicle solution and orally administered to each drug treatment group. Blood samples were collected from the tail vein before and at 0.5, 2, 4, 6, 8, and 24 h after the oral administration.
(§2) The serum PTH level was measured using a Rat Intact PTH ELISA kit (Immutopics, Inc., San Clemente, CA). The serum calcium, phosphate and BUN levels were measured using an auto analyzer (Hitachi High-Technologies Corporation., Tokyo, Japan) or the following test kits: the Calcium E-test WAKO, the Phospha C-test WAKO, or the Blood Urea nitrogen B-test WAKO (Wako Pure Chemical Industries, Ltd., Osaka, Japan).

[2] = rats; no reference given; cited from earlier work
[3] = system: serum PTH; assay: Serum PTH reduction in common marmosets; assay type: in vivo, common marmoset; set-up: Serum PTH levels: unit not given here
Protocol: The study of effect of evocalcet on emesis in common marmoset was performed by referencing a previously reported method. The marmosets (n = 24) used for this study were housed in cages (460 × 600 × 655 mm) with environmental enrichments (wooden perches, swing, and balls) and acclimated for at least 4 weeks. The marmosets were fasted from evening on the day before administration. […] The serum PTH level was measured using a Porcine Intact PTH ELISA kit (Immutopics, Inc., San Clemente, CA, USA). To evaluate the emetic effects in marmosets, evocalcet (50 or 150 μg/kg) or cinacalcet (1500 or 5000 μg/kg) was orally administered (n = 6/drug, dose down titration, n = 12 in total). The observation of emesis was conducted until 4 h after the administration.

[4] = system: serum calcium; assay: Normal rat study: serum calcium level after oral administration; assay type: in vivo; set-up: Serum Ca: unit not given here; settings: normal rats
Protocol: as §1, §2

[5] = system: gastric emptying; assay: Evaluation of gastric emptying in rats (phenol red); assay type: in vivo, rat
Protocol: The study of gastric emptying in rats was performed by referencing a previously reported method. […] The rats were divided into eight body-weight-matched groups (n = 8/group). […] Ten minutes later, 0.05 w/v% phenol red, a non-absorbable marker solution (1.5 mL/body), was orally administered. Thirty minutes after the administration of phenol red, the rats were euthanized by cervical dislocation, and the gastric body clamped at the cardiac and pyloric part of the stomach was obtained. The stomach was homogenized by adding 0.1 M NaOH and centrifugated. The supernatant was mixed with 20 w/v% trichloroacetic acid. After centrifugation, the supernatant was mixed with the same volume of 0.5 mol/L NaOH, and the absorbance was measured at 560 nm. The gastric emptying rate was calculated by the following formula: […]=[1-(opticaldensity[[…])]×100

[6] = cinacalcet 1 mg/kg oral, 0 h, group mean of 10 rats
[7] = cinacalcet 1 mg/kg oral, 0 h, individual rat
[8] = cinacalcet 1 mg/kg oral, 0.5 h, group mean of 10 rats
[9] = cinacalcet 1 mg/kg oral, 0.5 h, individual rat
[10] = cinacalcet 1 mg/kg oral, 2 h, group mean of 10 rats
[11] = cinacalcet 1 mg/kg oral, 2 h, individual rat
[12] = cinacalcet 1 mg/kg oral, 4 h, group mean of 10 rats
[13] = cinacalcet 1 mg/kg oral, 4 h, individual rat
[14] = cinacalcet 1 mg/kg oral, 6 h, group mean of 10 rats
[15] = cinacalcet 1 mg/kg oral, 6 h, individual rat
[16] = cinacalcet 1 mg/kg oral, 8 h, group mean of 10 rats
[17] = cinacalcet 1 mg/kg oral, 8 h, individual rat
[18] = cinacalcet 1 mg/kg oral, 24 h, group mean of 10 rats
[19] = cinacalcet 1 mg/kg oral, 24 h, individual rat
[20] = cinacalcet 3 mg/kg oral, 0 h, group mean of 10 rats
[21] = cinacalcet 3 mg/kg oral, 0 h, individual rat
[22] = cinacalcet 3 mg/kg oral, 0.5 h, individual rat
[23] = cinacalcet 3 mg/kg oral, 2 h, individual rat
[24] = cinacalcet 3 mg/kg oral, 4 h, individual rat
[25] = cinacalcet 3 mg/kg oral, 6 h, individual rat
[26] = cinacalcet 3 mg/kg oral, 8 h, individual rat
[27] = cinacalcet 3 mg/kg oral, 24 h, individual rat
[28] = single oral dose, vs vehicle group

Structure (SMILES): C[C@@H](NCCCc1cccc(C(F)(F)F)c1)c1cccc2ccccc12 [cinacalcet, Cinacalcet hydrochloride, reference compound]
- Serum PTH [1, 6]: 109.720
- Serum PTH [1, 7]: 125.722 and 130.447 and 67.586 and 199.824 and 100.664 and 97.298 and 150.924 and 89.996 and 55.272 and 79.471
- Serum PTH [1, 8]: 80.824
- Serum PTH [1, 9]: 82.661 and 77.184 and 76.842 and 101.034 and 110.106 and 55.958 and 55.844 and 88.538 and 77.412
- Serum PTH [1, 10]: 79.608
- Serum PTH [1, 11]: 48.013 and 15.500 and 63.091 and 101.472 and 98.442 and 56.814 and 145.553 and 109.841 and 112.583 and 44.766
- Serum PTH [1, 12]: 140.908
- Serum PTH [1, 13]: 61.596 and 118.199 and 215.679 and 200.323 and 159.521 and 92.828 and 169.313 and 166.494 and 115.974 and 109.149
- Serum PTH [1, 14]: 165.420
- Serum PTH [1, 15]: 193.418 and 170.704 and 168.342 and 210.841 and 173.065 and 135.125 and 169.319 and 98.407 and 166.633
- Serum PTH [1, 16]: 216.453
- Serum PTH [1, 17]: 174.106 and 258.920 and 229.591 and 209.695 and 192.029 and 200.519 and 209.009 and 246.914 and 151.294 and 292.451
- Serum PTH [1, 18]: 137.047
- Serum PTH [1, 19]: 113.627 and 116.500 and 103.304 and 199.622 and 108.780 and 152.854 and 112.730 and 224.397 and 139.120 and 99.534
- Serum PTH [1, 20]: 102.683
- Serum PTH [1, 21]: 56.632 and 140.686 and 84.483 and 109.613
- Serum PTH [1, 22]: 15.500 and 54.018
- Serum PTH [1, 23]: 42.818 and 15.500 and 32.934
- Serum PTH [1, 24]: 141.716 and 112.265 and 135.633 and 62.560
- Serum PTH [1, 25]: 155.316 and 207.503 and 133.171
- Serum PTH [1, 26]: 158.155 and 206.865 and 189.885 and 126.682
- Serum PTH [1, 27]: 109.678 and 94.507 and 141.634 and 226.462
- Doses that significantly reduced the serum PTH level [1, 28]: ≥ 1 mg/kg
- bioavailability [2]: 1%-2%
- Serum PTH levels ([3]; 300 μg/kg, 1 h, individual animals): 206.7 and 42.9 and 113.4
- Serum PTH levels ([3]; 300 μg/kg, 1 h, mean): 121.0
- Serum PTH levels ([3]; 300 μg/kg, 4 h, individual animals): 384.2 and 103.1 and 100.2
- Serum PTH levels ([3]; 300 μg/kg, 4 h, mean): 195.8
- Serum PTH levels ([3]; 300 μg/kg, before administration, individual animals): 327.6 and 84.8 and 116.8
- Serum PTH levels ([3]; 300 μg/kg, before administration, mean): 176.4
- Serum PTH levels ([3]; 500 μg/kg, 1 h, individual animals): 66.0 and 160.9 and 28.9
- Serum PTH levels ([3]; 500 μg/kg, 1 h, mean): 85.3
- Serum PTH levels ([3]; 500 μg/kg, 4 h, individual animals): 370.0 and 348.3 and 172.2
- Serum PTH levels ([3]; 500 μg/kg, 4 h, mean): 296.8
- Serum PTH levels ([3]; 500 μg/kg, before administration, individual animals): 370.0 and 298.9 and 61.2
- Serum PTH levels ([3]; 500 μg/kg, before administration, mean): 243.4
- Minimum effective dose on PTH reduction ([3]; oral): 500 µg/kg
- Serum Ca [4, 6]: 11.5
- Serum Ca [4, 7]: 14.6 and 10.4 and 11.2 and 10.8 and 12.0 and 11.0 and 11.4
- Serum Ca [4, 8]: 10.5
- Serum Ca [4, 9]: 10.4 and 10.8 and 10.0 and 10.6 and 10.2
- Serum Ca [4, 10]: 10.3
- Serum Ca [4, 11]: 10.4 and 10.2 and 10.0 and 10.6
- Serum Ca [4, 12]: 9.9
- Serum Ca [4, 13]: 8.0 and 10.2 and 9.8 and 10.4 and 10.0
- Serum Ca [4, 14]: 10.0
- Serum Ca [4, 15]: 9.6 and 9.4 and 10.0 and 10.4 and 10.2
- Serum Ca [4, 16]: 10.1
- Serum Ca [4, 17]: 10.0 and 10.4 and 10.2 and 9.8
- Serum Ca [4, 18]: 12.1
- Serum Ca [4, 19]: 12.2 and 11.8 and 11.2 and 12.6 and 11.4 and 13.0 and 11.0 and 12.4
- Serum Ca [4, 20]: 11.1
- Serum Ca [4, 21]: 11.2 and 9.4 and 11.4
- Serum Ca ([4]; cinacalcet 3 mg/kg oral, 0.5 h, group mean of 10 rats): 10.6
- Serum Ca [4, 22]: 10.8 and 10.6 and 11.2 and 10.2
- Serum Ca ([4]; cinacalcet 3 mg/kg oral, 2 h, group mean of 10 rats): 9.8
- Serum Ca [4, 23]: 9.8 and 8.6 and 10.0
- Serum Ca ([4]; cinacalcet 3 mg/kg oral, 4 h, group mean of 10 rats): 9.3
- Serum Ca [4, 24]: 9.2 and 8.8 and 9.4
- Serum Ca ([4]; cinacalcet 3 mg/kg oral, 6 h, group mean of 10 rats): 9.3
- Serum Ca [4, 25]: 9.4 and 8.8 and 9.6
- Serum Ca ([4]; cinacalcet 3 mg/kg oral, 8 h, group mean of 10 rats): 9.7
- Serum Ca [4, 26]: 9.6 and 9.2 and 9.8
- Serum Ca ([4]; cinacalcet 3 mg/kg oral, 24 h, group mean of 10 rats): 12.1
- Serum Ca [4, 27]: 12.0 and 11.2 and 11.6
- Serum Ca ([4]; cinacalcet 10 mg/kg oral, 0 h, individual rat): 9.6 and 11.4 and 10.6 and 11.2
- Serum Ca ([4]; cinacalcet 10 mg/kg oral, 0.5 h, individual rat): 10.0 and 10.2 and 10.8 and 9.8
- Serum Ca ([4]; cinacalcet 10 mg/kg oral, 2 h, individual rat): 8.6 and 9.6 and 9.4 and 9.2
- Serum Ca ([4]; cinacalcet 10 mg/kg oral, 4 h, individual rat): 8.2 and 9.2 and 8.8
- Serum Ca ([4]; cinacalcet 10 mg/kg oral, 6 h, individual rat): 8.0 and 8.8 and 8.6
- Serum Ca ([4]; cinacalcet 10 mg/kg oral, 8 h, individual rat): 8.6 and 10.4 and 8.4 and 8.8
- Serum Ca ([4]; cinacalcet 10 mg/kg oral, 24 h, individual rat): 11.4 and 11.6 and 11.0 and 10.2
- Doses that significantly reduced the serum calcium level [4, 28]: ≥ 1 mg/kg
- Gastric Emptying ([5]; 100 mg/kg, group mean): 20.02%
- Gastric Emptying ([5]; 100 mg/kg, individual rats): 7.17% and 20.46% and 31.67% and 44.76% and 1.77% and 30.22% and 22.74% and 1.35%
- Gastric Emptying ([5]; cinacalcet 10 mg/kg oral, 30 minutes, group mean, n = 8): 55.17%
- Gastric Emptying ([5]; cinacalcet 10 mg/kg oral, 30 minutes, individual rats): 44.96% and 61.79% and 57.42% and 52.23% and 44.34% and 52.86% and 67.60% and 60.12%
- Gastric Emptying ([5]; cinacalcet 30 mg/kg oral, 30 minutes, group mean, n = 8): 35.72%
- Gastric Emptying ([5]; cinacalcet 30 mg/kg oral, 30 minutes, individual rats): 28.35% and 14.64% and 23.99% and 37.69% and 38.94% and 32.71% and 40.60% and 68.85%
- Dose inhibiting gastric emptying relative to the dose required for a significant PTH reduction ([5]; oral): approximately 30 fold
- Doses that caused a significant delay in gastric emptying ([5]; oral, vs vehicle group): ≥ 30 mg/kg
